O=C(/C=C/C=C/c1ccc2c(c1)OCO2)N1CCCCC1
solubility (mole fraction)
Details	298.2 K	303.2 K	308.2 K	313.2 K	318.2 K
in DMSO	0.0287	0.0303	0.0321	0.0339	0.0359
in ethanol	0.00899	0.01	0.011	0.012	0.0134
in ethyl acetate	0.00985	0.011	0.0123	0.0137	0.0154
in ethylene glycol	0.00386	0.00444	0.00515	0.00597	0.0067
in isopropanol	0.0123	0.0136	0.0149	0.0164	0.0182
in methanol	0.00527	0.00584	0.00648	0.00719	0.00791
in n-butanol	0.0156	0.0169	0.0183	0.0201	0.022
in propylene glycol	0.01	0.0111	0.0122	0.0134	0.0147
in sec-butanol	0.0158	0.017	0.0187	0.0206	0.0225
in transcutol	0.0797	0.0826	0.0852	0.0883	0.0917
in water	1.07e-05	1.18e-05	1.29e-05	1.41e-05	1.52e-05

Details	solubility (mole fraction)
in PEG-400, 298.2 K	0.0518
in PEG-400, 303.2 K	0.0584
in PEG-400, 308.2 K	0.0652
in PEG-400, 313.2 K	0.0718
in PEG-400, 318.2 K	0.0788
